Assay results reported in article PMC9866482, “Determination of Chemical Composition and Investigation of Biological Activities of Ocimum basilicum L” (Molecules, 2023).
Marks after values point to notes of the source that are not given here.

Experiments:
[1] = tested on: Listeria monocytogenes ATCC 13932; assay: Disc diffusion assay; assay type: cell-based; details: ATCC13932, disc with 10 µL EO or aqueous extract, chloramphenicol 30 µg, read-out: Diameters of the inhibition zones
Experimental: (§1) The bacterial strains were revived by inoculation in Mueller–Hinton Agar (MHA) followed by incubation at 37 °C for 24 h. A bacterial suspension (0.5 McFarland) was prepared in sterile physiologic water (0.9% NaCl) from the obtained culture. The yeast strain was inoculated in Sabouraud’s agar (SA) and incubated at 25 °C for 48 h, then a yeast suspension (0.5 McFarland) was prepared in sterile physiological water. The Fungi strains were sub-cultured in SA and incubated at 25 °C for 5 days. Afterward, the culture was washed with 2 mL of sterile physiological water. The suspension was transferred to a sterile assay tube, where the heavy particles were allowed to settle for 5 min. The upper homogeneous suspensions were transferred to a new sterile tube and adjusted microscopically to about 10^4 CFU/mL.
(§2) Briefly, the culture suspension was inoculated by swab on optimal culture media (MHA for bacteria and SA for yeasts and fungi). Afterward, six mm diameter sterile paper discs soaked in 10 µL of EO (mixed with 5% dimethyl sulfoxide (DMSO)) or aqueous extract were deposited on each plate. Chloramphenicol (30 µg) was used as a positive control for bacteria, and nystatin (100 I.U.) was used as a positive control for yeasts and fungi, while DMSO (10 µL; 5%) as a negative control. Incubation was then conducted at 37 °C for 24 h, 25 °C for 48 h, and 25 °C for 72 h for bacteria, yeasts, and fungi, respectively. After incubation, the diameters of the inhibition zones were measured in millimeters, and the results were expressed as the mean ± standard deviation (SD) of three replicates.

[2] = tested on: Staphylococcus aureus ATCC 29213; assay: Disc diffusion assay; assay type: cell-based; details: ATCC29213, disc with 10 µL EO or aqueous extract, chloramphenicol 30 µg, read-out: Diameters of the inhibition zones
Experimental: as §1, §2

[3] = tested on: Salmonella enterica Typhimurium ATCC 700408; assay: Disc diffusion assay; assay type: cell-based; details: disc with 10 µL EO or aqueous extract, chloramphenicol 30 µg, read-out: Diameters of the inhibition zones
Experimental: as §1, §2

[4] = tested on: Bacillus subtilis ATCC 6633; assay: Disc diffusion assay; assay type: cell-based; details: disc with 10 µL EO or aqueous extract, chloramphenicol 30 µg
Experimental: as §1, §2

[5] = tested on: Proteus mirabilis ATCC 25933; assay: Disc diffusion assay; assay type: cell-based; details: ATCC25933, disc with 10 µL EO or aqueous extract, chloramphenicol 30 µg, read-out: Diameters of the inhibition zones
Experimental: as §1, §2

[6] = tested on: Escherichia coli ATCC 25922; assay: Disc diffusion assay; assay type: cell-based; details: ATCC25922, disc with 10 µL EO or aqueous extract, chloramphenicol 30 µg, read-out: Diameters of the inhibition zones
Experimental: as §1, §2

[7] = tested on: Listeria monocytogenes ATCC 13932; assay: MIC and MBC by microdilution; assay type: cell-based; details: ATCC13932, head does not say MIC or MBC, read-out: Controls (MIC of positive control)
Experimental: (§3) The bacterial strains were revived by inoculation in Mueller–Hinton Agar (MHA) followed by incubation at 37 °C for 24 h. A bacterial suspension (0.5 McFarland) was prepared in sterile physiologic water (0.9% NaCl) from the obtained culture. The yeast strain was inoculated in Sabouraud’s agar (SA) and incubated at 25 °C for 48 h, then a yeast suspension (0.5 McFarland) was prepared in sterile physiological water. The Fungi strains were sub-cultured in SA and incubated at 25 °C for 5 days. Afterward, the culture was washed with 2 mL of sterile physiological water. The suspension was transferred to a sterile assay tube, where the heavy particles were allowed to settle for 5 min. The upper homogeneous suspensions were transferred to a new sterile tube and adjusted microscopically to about 10^4 CFU/mL. […] The minimum inhibitory concentration (MIC) is defined as the lowest concentration of EO or extract that can inhibit the growth of microorganisms. […] Mueller–Hinton broth (MHB) (Biokar, Beauvais, France) was used for bacteria, whereas Sabouraud broth (Biokar, Beauvais, France) was employed for yeast. The incubation was carried out at 37 °C for 24 h for the bacteria and at 25 °C for 48 h for the yeasts. However, MIC determination for fungi was carried out by the gradient plate method according to the protocol previously described. Chloramphenicol was used as a positive control for bacteria, while nystatin was used for yeasts and fungi. Minimum bactericidal concentration (MBC) corresponds to the lowest EO or extract concentration that can kill the microorganism. The same microdilution experiment used in determining the MIC was used.

[8] = tested on: Staphylococcus aureus ATCC 29213; assay: MIC and MBC by microdilution; assay type: cell-based; details: ATCC29213, head does not say MIC or MBC, read-out: Controls (MIC of positive control)
Experimental: as §3

[9] = tested on: Salmonella enterica Typhimurium ATCC 700408; assay: MIC and MBC by microdilution; assay type: cell-based; details: head does not say MIC or MBC, read-out: Controls (MIC of positive control)
Experimental: as §3

[10] = tested on: Bacillus subtilis ATCC 6633; assay: MIC and MBC by microdilution; assay type: cell-based; details: ATCC6633, head does not say MIC or MBC, read-out: Controls (MIC of positive control)
Experimental: as §3

[11] = tested on: Proteus mirabilis ATCC 25933; assay: MIC and MBC by microdilution; assay type: cell-based; details: ATCC25933, head does not say MIC or MBC, read-out: Controls (MIC of positive control)
Experimental: as §3

[12] = tested on: Escherichia coli ATCC 25922; assay: MIC and MBC by microdilution; assay type: cell-based; details: ATCC25922, head does not say MIC or MBC, method names the control for MIC, read-out: Controls (MIC of positive control)
Experimental: as §3

Trichophyton rubrum [13] = assay: Disc diffusion assay; assay type: cell-based; details: disc with 10 µL EO or aqueous extract, nystatin 100 I.U.
Experimental: as §1, §2

Aspergillus niger [14] = assay: Disc diffusion assay; assay type: cell-based; details: disc with 10 µL EO or aqueous extract, nystatin 100 I.U.
Experimental: as §1, §2

Candida albicans [15] = assay: Disc diffusion assay; assay type: cell-based; details: disc with 10 µL EO or aqueous extract, nystatin 100 I.U.
Experimental: as §1, §2

Trichophyton rubrum [16] = assay: MIC by gradient plate method, MBC; assay type: cell-based; details: head does not say MIC or MBC
Experimental: as §3, with “Chloramphenicol was used as a positive control for bacteria, while nystatin was used for yeasts and fungi. Minimum bactericidal concentration (MBC) corresponds to the lowest EO or extract concentration that can kill the microorganism. The same microdilution experiment used in determining the MIC was used.” left out

Aspergillus niger [17] = assay: MIC by gradient plate method, MBC; assay type: cell-based; details: head does not say MIC or MBC
Experimental: as §3, with “Chloramphenicol was used as a positive control for bacteria, while nystatin was used for yeasts and fungi. Minimum bactericidal concentration (MBC) corresponds to the lowest EO or extract concentration that can kill the microorganism. The same microdilution experiment used in determining the MIC was used.” left out

Candida albicans [18] = assay: MIC and MBC by microdilution (yeast); assay type: cell-based; details: head does not say MIC or MBC
Experimental: as §3, with “Chloramphenicol was used as a positive control for bacteria, while nystatin was used for yeasts and fungi. Minimum bactericidal concentration (MBC) corresponds to the lowest EO or extract concentration that can kill the microorganism. The same microdilution experiment used in determining the MIC was used.” left out

[19] = Ferric reducing antioxidant power (FRAP) assay; details: mean of triplicates ± SD
ABTS antioxidant assay = details: mean of triplicates ± SD
tyrosinase = tyrosinase (Agaricus bisporus, UniProt C7FF04); details: basil EOs from different cultivars, arbutin as positive control ref 111; cited from earlier work
Sequence of tyrosinase (C7FF04 1-392): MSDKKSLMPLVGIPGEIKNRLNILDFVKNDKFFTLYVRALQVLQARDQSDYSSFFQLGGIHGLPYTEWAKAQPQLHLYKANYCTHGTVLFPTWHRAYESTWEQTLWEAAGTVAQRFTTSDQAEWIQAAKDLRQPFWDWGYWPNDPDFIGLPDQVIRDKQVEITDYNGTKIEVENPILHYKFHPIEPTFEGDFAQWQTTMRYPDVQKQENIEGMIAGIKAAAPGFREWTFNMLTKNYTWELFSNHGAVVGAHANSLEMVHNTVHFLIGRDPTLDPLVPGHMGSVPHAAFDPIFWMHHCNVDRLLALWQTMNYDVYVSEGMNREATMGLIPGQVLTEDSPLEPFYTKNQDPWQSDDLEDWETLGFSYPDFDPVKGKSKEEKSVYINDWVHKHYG

[20] = set-up: method as in PMID 35926753; details: LPS-treated rats, oral dose 500 mg/60 kg b.w. ref 109; cited from earlier work

Work on `O=C(N[C@H](CO)[C@H](O)c1ccc([N+](=O)[O-])cc1)C(Cl)Cl` [Chloramphenicol] yielded a zone of inhibition at 30 µg/disc [1] of 27.9 ± 0.15 mm, a zone of inhibition at 30 µg/disc [2] of 25 ± 0.25 mm and a zone of inhibition at 30 µg/disc [3] of 13.5 ± 0.15 mm. For the same compound, the “Diameters of the inhibition zones” value ([4]; Bacillus subtilis ATCC 6633) was 15.5 ± 0.15 mm, the zone of inhibition at 30 µg/disc ([4]; Bacillus subtilis, ATCC6633, Bacillus subtilis ATCC 6633, read-out: Diameters of the inhibition zones) was 15.7 mm and the zone of inhibition at 30 µg/disc [5] was 22.2 ± 0.15 mm. For the same compound, the zone of inhibition at 30 µg/disc [6] was 21.9 ± 0.2 mm, the MIC [7] was 2 µg/mL and the MIC [8] was 4 µg/mL. It also gave an MIC [9] of 64 µg/mL, an MIC [10] of 32 µg/mL and an MIC [11] of 4 µg/mL. It also gave an MIC [12] of 4 µg/mL.

With `C[C@@H]1[C@H](O)[C@@H](C)/C=C/C=C/CC/C=C/C=C/C=C/C=C/C(O[C@H]2O[C@H](C)[C@@H](O)[C@H](N)[C@@H]2O)CC2O[C@](O)(CC(O)C(O)CCC(O)CC(O)CC(O)CC(=O)O[C@H]1C)CC(O)C2C(=O)O` (stereo partly drawn) [Nystatin] the “Diameters of the inhibition zones” value (Trichophyton rubrum [13]) was 24.9 ± 0.26 mm, the “Diameters of the inhibition zones” value (Aspergillus niger [14]) was 26.4 ± 0.10 mm and the “Diameters of the inhibition zones” value (Candida albicans [15]) was 29.7 ± 0.20 mm. The “Controls (MIC of positive control)” value (Trichophyton rubrum [16]) was 16 µg/mL, the “Controls (MIC of positive control)” value (Aspergillus niger [17]) was 16 µg/mL and the “Controls (MIC of positive control)” value (Candida albicans [18]) was 4 µg/mL.

With `Cc1c(C)c2c(c(C)c1O)CCC(C)(C(=O)O)O2` (stereo not drawn) [Trolox] the “IC50 FRAP” value [19] was 8.52 ± 0.17 ^c mg TEs/g and the “IC50 ABTS” value (ABTS antioxidant assay) was 9.33 ± 0.07 ^c mg TEs/g.

In the case of `OC[C@H]1O[C@@H](Oc2ccc(O)cc2)[C@H](O)[C@@H](O)[C@@H]1O` [arbutin], the Tyrosinase inhibitory activity (tyrosinase) is listed as 81.5 ± 2.6%.

In the case of `O=C(O)c1ccccc1` [benzoic acid], the “Level of IL-1β” value [20] is listed as 2.32 ± 0.28 × 10^3 pg/mL and the “Level of tumor necrosis factor-α (TNF-α)” value [20] is listed as 5.70 ± 1.04 × 10^3 pg/mL.
